We go through one molecule from patent US11160885B2, “Phospholipid composition and microbubbles and emulsions formed using same” (Microvascuar Therapeutics LLC, priority 2014, dated 2021).

For data set [1] the following is noted: cited from earlier work.
The nature of data set [2]: Ionization of DPPA as a function of pH. The data set is classed as physicochemical. From the text:
As those skilled in the art will appreciate, DPPA comprises two acidic protons. The pKa for the second acidic proton is about 7.9. FIG. 1 graphically depicts the ionization of DPPA as a function of pH. Curve 110 recites the percent of mono-anion 6 present, and curve 120 recites the percent of di-anion 7 present. At a pH of about 4 and higher, the combined percentages of mono-anion 6 and di-anion 7 total 100.
At a pH of about 7.9, DPPA comprises about 50 percent mono-anion 7 and about 50 percent di-anion 8. At a pH of about 7.0, DPPA comprises about 85 percent mono-anion 7 and about 15 percent di-anion 8.

Take `CCCCCCCCCCCCCCCC(=O)OC[C@H](COP(=O)(O)O)OC(=O)CCCCCCCCCCCCCCC` [DPPA, dipalmitoylphosphatidic acid]: in data set [1], the “pKa for the second acidic proton” value is recorded as “about 7.9”. Besides, the figures for the percent di-anion entry in data set [2] (pH of about 7.0) and in data set [2] (pH of about 7.9) were “about 15%” and “about 50%”, respectively. The percent mono-anion entry in data set [2] (pH of about 7.0) is recorded as “about 85%”; in data set [2] (pH of about 7.9) it was “about 50%”.
